In test [1] the test system is OUMS‐36 embryonic fibroblasts. The test is described as follows: intracellular ROS, CellROX Deep Red flow cytometry, OUMS-36. In kind it is cell-based, human. The settings on record: treated 1 h (menadione 100 μmol/L, 30 min). The procedure: (§1) In order to estimate the effect of each inhibitor described above, intracellular reactive oxygen species (ROS) were measured using CellROX™ Deep Red reagent (Molecular Probes). Briefly, cells were seeded on 6‐well plates at 1 × 10^6 cells per well. After cells reached 90% confluence, cells were treated with designated reagents for 1 h. CellROX™ Deep Red reagent was added at a final concentration of 5 μmol/L to the culture medium and then incubated for 30 min at 37°C. Subsequently, the medium was removed and the cells were washed with PBS and detached using 0.25% trypsin‐EDTA. The resulting fluorescence was measured using a FACS Calibur flow cytometer (Becton Dickinson, Franklin Lakes, NJ). Menadione (100 μmol/L) was added 30 min before CellROX™ Deep Red reagent treatment as a reference ROS inducer. […] CD44v9 positivity of CTOS cells was analyzed as follows: Cancer spheroids were dispersed with serial treatments of TrypLE™ (20 min, GIBCO) and Accumax™ (10 min, Innovative Cell Technologies, San Diego, CA). Cell surface CD44v9 was stained with CD44v9 antibody (Cosmobio) as well as PE‐conjugated anti‐rat IgG2a (Becton Dickinson). The fluorescence was measured using a FACS Calibur flow cytometer (Becton Dickinson). Since CTOSs contained abundant auto‐fluorescent cells, we defined FL2^+FL1^− cells as authentic PE‐positive (Fig. S4). Thus, CD44v9‐positive rate was defined as FL2^+FL1^−/total live cells and CD44v9‐positive fraction was further gated and split between CD44v9^low and CD44v9^high (Fig. S4), to calculate the mean fluorescent intensity of CD44v9^high fraction.
(§2) One hour after each drug treatment, cells were stained with CellROX DeepRed and intracellular ROS were quantified with FACS. Upper: histogram of fluorescent signal is represented. Lower. representative mean fluorescent intensity scores are shown. Note that without drug treatment (Control), intracellular ROS is higher in OUMS36 and TIG3 (embryonic fibroblasts) but lower in DLD-1 and HCT116 (CRC cell lines). ROS in DLD-1 was increased by auranofin. ROS in HCT116 was increased by all the inhibitors tested. […]
Background: In flow cytometry, cells or beads pass a laser one at a time.

In test [2] the test system is NRF2 target genes in colorectal CTOSs. In words: qRT-PCR of NRF2 and TP53 target genes in colorectal CTOSs. The conditions noted are these: higher dose (auranofin 4, CB83 25, piperlongumine 10 μmol/L) for 24 h. In kind it is cell-based, human. The procedure:
Total RNA was purified using RNAiso Plus (Takara, Osaka, Japan). Reverse transcription was performed using PrimeScript™ with gDNA Eraser (Takara). For quantifying the copy number of each mRNA, we used a StepOne™ Real‐Time PCR System (Applied Biosystems, Waltham, MA) and the Taqman® method. Data were calculated according to the modified delta‐cycle of threshold (ΔCT) method. Normalized Log2 expression was defined as follows: (Log2 expression of a gene of interest) = 30 (arbitrary constant) + (CT of 18S rRNA) − (CT of a gene of interest). We used Log2 parameter for statistical analysis because mRNA expression follows a log‐normal distribution, whereas ΔCT follows normal distribution. A gene‐specific fluorescent probe was designed using a web‐based program (https://qpcr.probefinder.com/organism.jsp). […] Gene‐specific Taqman® probes were purchased from Life Technologies, (Waltham, MA, for Cat#, see Table S1 SpreadSheet2). For PCR, Thunderbird® Probe qPCR mix (Toyobo, Osaka, Japan) was used and the PCR conditions consisted of 40 cycles of two steps (95°C for 15 sec and 60°C for 50 sec).
In order to judge the effect of drug treatments on gene expression, a repeated measures one‐way analysis of variance (ANOVA) was used to determine the variance of Log2 expression from four different groups (untreated, auranofin, CB83, and piperlongumine) using SPSS. Subsequently, the effect of each drug was determined by a paired t test as a post hoc analysis. The P‐values < 0.05 were defined as statistically significant.
In order to estimate NRF2 compensation induced by pharmacological inhibition of TXNRD (auranofin), G6PD (CB83), or GSTπ (piperlongumine), we quantified gene expression of NRF2 target genes. Activation of NRF2 protein was confirmed by NRF2 phosphorylation (Fig. S5A).

The test system of test [3] is TIG‐3 embryonic fibroblasts. The test is described as follows: intracellular ROS, CellROX Deep Red flow cytometry, TIG-3. In kind it is cell-based, human. The conditions noted are these: treated 1 h (menadione 100 μmol/L, 30 min). As to the method: as §1, §2
Test [4] concerns phosphorylated NRF2 in colorectal CTOSs. The test is described as follows: NRF2 phosphorylation by western blotting, colorectal CTOSs. In kind it is cell-based, human. The conditions noted are these: 24 hours, Auranofin 2µM, Piperlongumine 5µM, CB83 12.5 µM. The procedure:
From colorectal CTOS, whole‐cell proteins were dissolved with solubilizer (7 mol/L urea, 2 mol/L thiourea, 2% Triton X‐100, Wako) and the entangled genomic DNA was sheared by sonication for 30 min. Procedures for immunoblotting have been described elsewhere 6, 10. Primary antibodies used in this study are as follows: phosphorylated NRF2 from Abcam (#76026) and Histone H3 from Cell Signaling Technologies (#4499, Danvers, MA). Phosphorylation of NRF2 is well correlated with nuclear accumulation in HCCs 6. Representative data are shown in the figures; all experiments were reproduced at least twice with different passage points.
Colorectal CTOSs were incubated with each inhibitor for 24 hours. Whole cell proteins were extracted and each well was loaded with same amount of proteins (40 µg for NRF2 and 10 µg for H3). Phosphorylation of NRF2 was measured by western blotting. Blotting for histone H3 serves as loading control.

Another test relates to HCT116 CRC cell line. The test is described as follows: intracellular ROS, CellROX Deep Red flow cytometry, HCT116. The conditions noted are these: treated 1 h (menadione 100 μmol/L, 30 min). In kind it is cell-based, human. The procedure: as §1
One hour after each drug treatment, cells were stained with CellROX DeepRed and intracellular ROS were quantified with FACS. Upper: histogram of fluorescent signal is represented. Lower. representative mean fluorescent intensity scores are shown. Note that without drug treatment (Control), intracellular ROS is higher in OUMS36 and TIG3 (embryonic fibroblasts) but lower in DLD-1 and HCT116 (CRC cell lines). ROS in DLD-1 was increased by auranofin. ROS in HCT116 was increased by all the inhibitors tested. Menadione was used as a reference chemical to increase ROS.

The test system of the next test is CRC cell lines. On the set-up: method as in PMID 25591719. The settings on record: cited from earlier work.
The subject of another test is DLD‐1 CRC cell line. The test is described as follows: intracellular ROS, CellROX Deep Red flow cytometry, DLD-1. In kind it is cell-based, human. The settings on record: treated 1 h (menadione 100 μmol/L, 30 min). The procedure:
as §1, with “Since CTOSs contained abundant auto‐fluorescent cells, we defined FL2^+FL1^− cells as authentic PE‐positive (Fig. S4). Thus, CD44v9‐positive rate was defined as FL2^+FL1^−/total live cells and CD44v9‐positive fraction was further gated and split between CD44v9^low and CD44v9^high (Fig. S4), to calculate the mean fluorescent intensity of CD44v9^high fraction.” left out
One hour after each drug treatment, cells were stained with CellROX DeepRed and intracellular ROS were quantified with FACS. […]

The source of these data is PMC5055185, “Dual pharmacological inhibition of glutathione and thioredoxin systems synergizes to kill colorectal carcinoma stem cells” (Cancer Medicine, 2016).

As to `Cc1ccc(C)c(S(=O)(=O)Nc2ccc(O)c3ccccc23)c1` [CB83], the “intracellular ROS response” value in test [1] is “no ROS increase”; in test [3], “no ROS increase”; with HCT116 CRC cell line, “increase of ROS”. Besides, in test [2], the “TXNRD1 mRNA expression change” value is recorded as “up‐regulated”. The NRF2 phosphorylation result in test [4] was “efficiently phosphorylated”. Also, the GSH/GSSG ratios result in the test on CRC cell lines was “failed to alter”. In addition, the “NADPH/NADP+ ratios” value in the test on CRC cell lines is given as “decreased”.
Consider `CC1=CC(=O)c2ccccc2C1=O` [menadione, Menadione], for which the “intracellular ROS response” value is on record as “no ROS increase” in test [1], “no ROS increase” in test [3], “increase of ROS” in the test on DLD‐1 CRC cell line and “increase of ROS” in the test with HCT116 CRC cell line.
